Measurements reported in the NIST ThermoML archive (doi:10.1021/je025657+).
“And” between values parts separate entries of the source, which are not always exact repeats. Equal entries are not always repeated.

Details: for vapor or sublimation pressure: Closed cell (Static) method

COC(F)(F)F [trifluoromethoxymethane]
Details | mass density [kg/m3]
240 K, 17 kPa, Gas | 0.84
240 K, 25.1 kPa, Gas | 1.25
240 K, 36.9 kPa, Gas | 1.87
240 K, 517.1 kPa, Liquid | 1262.64
240 K, 1011 kPa, Liquid | 1263.83
240 K, 1516.2 kPa, Liquid | 1265.03
240 K, 2014.7 kPa, Liquid | 1266.21
240 K, 2517.3 kPa, Liquid | 1267.38
240 K, 3024.1 kPa, Liquid | 1268.56
240 K, 3529.6 kPa, Liquid | 1269.72
240 K, 4031 kPa, Liquid | 1270.86
240 K, 4515.5 kPa, Liquid | 1271.95
240 K, 5038.9 kPa, Liquid | 1273.12
240 K, 5511.8 kPa, Liquid | 1274.16
240 K, 6024.7 kPa, Liquid | 1275.29
240 K, 6511.7 kPa, Liquid | 1276.35
240 K, 6981.1 kPa, Liquid | 1277.36
250 K, 19.2 kPa, Gas | 0.91
250 K, 28.3 kPa, Gas | 1.34
250 K, 41.7 kPa, Gas | 1.98
250 K, 61.2 kPa, Gas | 2.94
250 K, 89.4 kPa, Gas | 4.33
250 K, 505.1 kPa, Liquid | 1236.18
250 K, 1008.8 kPa, Liquid | 1237.55
250 K, 1508.8 kPa, Liquid | 1238.91
250 K, 2020.1 kPa, Liquid | 1240.28
250 K, 2517.2 kPa, Liquid | 1241.59
250 K, 3037 kPa, Liquid | 1242.95
250 K, 3530.8 kPa, Liquid | 1244.22
250 K, 4030.5 kPa, Liquid | 1245.49
250 K, 4537.2 kPa, Liquid | 1246.78
250 K, 5042.6 kPa, Liquid | 1248.05
250 K, 5550.6 kPa, Liquid | 1249.31
250 K, 6026.5 kPa, Liquid | 1250.48
250 K, 6529.6 kPa, Liquid | 1251.71
250 K, 6975.1 kPa, Liquid | 1252.79
260 K, 18.7 kPa, Gas | 1.11
260 K, 27.6 kPa, Gas | 1.53
260 K, 40.7 kPa, Gas | 2.15
260 K, 59.9 kPa, Gas | 3.03
260 K, 87.8 kPa, Gas | 4.4
260 K, 127.7 kPa, Gas | 6.4
260 K, 507.8 kPa, Liquid | 1209.12
260 K, 1009.3 kPa, Liquid | 1210.7
260 K, 1499.4 kPa, Liquid | 1212.21
260 K, 2004.5 kPa, Liquid | 1213.76
260 K, 2515.8 kPa, Liquid | 1215.3
260 K, 3012.1 kPa, Liquid | 1216.77
260 K, 3527.2 kPa, Liquid | 1218.29
260 K, 4018 kPa, Liquid | 1219.71
260 K, 4522 kPa, Liquid | 1221.16
260 K, 5039.1 kPa, Liquid | 1222.63
260 K, 5512.3 kPa, Liquid | 1223.96
260 K, 6040.8 kPa, Liquid | 1225.42
260 K, 6546.9 kPa, Liquid | 1226.81
260 K, 6987.4 kPa, Liquid | 1227.99
270 K, 23.7 kPa, Gas | 1.1
270 K, 35 kPa, Gas | 1.6
270 K, 51.5 kPa, Gas | 2.35
270 K, 75.7 kPa, Gas | 3.49
270 K, 110.6 kPa, Gas | 5.15
270 K, 160.6 kPa, Gas | 7.63
270 K, 500.8 kPa, Liquid | 1180.45
270 K, 1001.8 kPa, Liquid | 1182.27
270 K, 1515.4 kPa, Liquid | 1184.1
270 K, 1999.2 kPa, Liquid | 1185.81
270 K, 2500.7 kPa, Liquid | 1187.53
270 K, 3017 kPa, Liquid | 1189.29
270 K, 3484.3 kPa, Liquid | 1190.86
270 K, 4038.2 kPa, Liquid | 1192.68
270 K, 4513.3 kPa, Liquid | 1194.24
270 K, 5047.2 kPa, Liquid | 1195.96
270 K, 5542.1 kPa, Liquid | 1197.53
270 K, 6036.1 kPa, Liquid | 1199.08
270 K, 6529.6 kPa, Liquid | 1200.61
270 K, 6973.6 kPa, Liquid | 1201.96
280 K, 27.5 kPa, Gas | 1.21
280 K, 40.5 kPa, Gas | 1.79
280 K, 59.6 kPa, Gas | 2.61
280 K, 87.6 kPa, Gas | 3.89
280 K, 128.3 kPa, Gas | 5.75
280 K, 186.4 kPa, Gas | 8.53
280 K, 269 kPa, Gas | 12.52
280 K, 454.4 kPa, Liquid | 1150.61
280 K, 985.2 kPa, Liquid | 1152.87
280 K, 1507.7 kPa, Liquid | 1155.03
280 K, 1992.9 kPa, Liquid | 1157.02
280 K, 2510.8 kPa, Liquid | 1159.1
280 K, 3011.5 kPa, Liquid | 1161.06
280 K, 3522.2 kPa, Liquid | 1163.04
280 K, 4037.2 kPa, Liquid | 1164.99
280 K, 4483.8 kPa, Liquid | 1166.68
280 K, 4942.1 kPa, Liquid | 1168.36
280 K, 5533.2 kPa, Liquid | 1170.51
280 K, 5977.4 kPa, Liquid | 1172.09
280 K, 6516.6 kPa, Liquid | 1173.99
280 K, 7008.7 kPa, Liquid | 1175.7
290 K, 18.9 kPa, Gas | 0.76
290 K, 30.4 kPa, Gas | 1.28
290 K, 50.3 kPa, Gas | 2.25
290 K, 74.2 kPa, Gas | 3.26
290 K, 109 kPa, Gas | 4.83
290 K, 159.4 kPa, Gas | 7.09
290 K, 232.8 kPa, Gas | 10.52
290 K, 338.9 kPa, Gas | 15.78
290 K, 493.5 kPa, Liquid | 1119.5
290 K, 976.7 kPa, Liquid | 1121.93
290 K, 979.3 kPa, Liquid | 1121.87
290 K, 1475.8 kPa, Liquid | 1124.36
290 K, 1999.9 kPa, Liquid | 1126.86
290 K, 2466.6 kPa, Liquid | 1129.04
290 K, 2989.9 kPa, Liquid | 1131.43
290 K, 3492.2 kPa, Liquid | 1133.73
290 K, 4029.3 kPa, Liquid | 1136.09
290 K, 4505 kPa, Liquid | 1138.14
290 K, 4999.6 kPa, Liquid | 1140.25
290 K, 5546.1 kPa, Liquid | 1142.55
290 K, 6046.4 kPa, Liquid | 1144.61
290 K, 6496.3 kPa, Liquid | 1146.42
290 K, 6981.5 kPa, Liquid | 1148.28
300 K, 31.3 kPa, Gas | 1.25
300 K, 46.2 kPa, Gas | 1.89
300 K, 68 kPa, Gas | 2.77
300 K, 100.1 kPa, Gas | 4.12
300 K, 146.6 kPa, Gas | 6.12
300 K, 214 kPa, Gas | 9.08
300 K, 306.3 kPa, Gas | 13.34
300 K, 439.5 kPa, Gas | 19.94
300 K, 589.3 kPa, Gas | 28.11
300 K, 617 kPa, Liquid | 1086.54
300 K, 658.2 kPa, Liquid | 1086.45
300 K, 913.6 kPa, Liquid | 1088.34
300 K, 1058.4 kPa, Liquid | 1088.91
300 K, 1466.6 kPa, Liquid | 1091.63
300 K, 1522.9 kPa, Liquid | 1091.63
300 K, 1998.6 kPa, Liquid | 1094.68
300 K, 2016.1 kPa, Liquid | 1094.48
300 K, 2526.4 kPa, Liquid | 1097.64
300 K, 2545.5 kPa, Liquid | 1097.41
300 K, 3023.5 kPa, Liquid | 1100.35
300 K, 3063.2 kPa, Liquid | 1100.24
300 K, 3486.7 kPa, Liquid | 1102.83
300 K, 3535.6 kPa, Liquid | 1102.72
300 K, 4015.2 kPa, Liquid | 1105.57
300 K, 4063.9 kPa, Liquid | 1105.45
300 K, 4499.8 kPa, Liquid | 1108.05
300 K, 4569.3 kPa, Liquid | 1107.99
300 K, 5014.6 kPa, Liquid | 1110.58
300 K, 5140.6 kPa, Liquid | 1110.81
300 K, 5517 kPa, Liquid | 1113.05
300 K, 5669.7 kPa, Liquid | 1113.35
300 K, 6023 kPa, Liquid | 1115.44
300 K, 6155.2 kPa, Liquid | 1115.66
300 K, 6499 kPa, Liquid | 1117.65
300 K, 6683.2 kPa, Liquid | 1118.07
300 K, 6960.3 kPa, Liquid | 1119.71
300 K, 7091.7 kPa, Liquid | 1119.94
310 K, 38.3 kPa, Gas | 1.49
310 K, 56.5 kPa, Gas | 2.22
310 K, 83.1 kPa, Gas | 3.29
310 K, 121.9 kPa, Gas | 4.87
310 K, 178.2 kPa, Gas | 7.22
310 K, 258.9 kPa, Gas | 10.69
310 K, 372.5 kPa, Gas | 15.8
310 K, 528.4 kPa, Gas | 23.4
310 K, 742.6 kPa, Gas | 35.17
310 K, 813.1 kPa, Liquid | 1051.26
310 K, 836.7 kPa, Liquid | 1051.44
310 K, 861.7 kPa, Liquid | 1051.63
310 K, 1006.3 kPa, Liquid | 1053.19
310 K, 1033.6 kPa, Liquid | 1052.9
310 K, 1512.4 kPa, Liquid | 1056.88
310 K, 1533.9 kPa, Liquid | 1056.54
310 K, 2000.5 kPa, Liquid | 1060.31
310 K, 2046.2 kPa, Liquid | 1060.13
310 K, 2498.6 kPa, Liquid | 1063.7
310 K, 2539.9 kPa, Liquid | 1063.48
310 K, 3027.3 kPa, Liquid | 1067.18
310 K, 3099.5 kPa, Liquid | 1067.15
310 K, 3517 kPa, Liquid | 1070.31
310 K, 3564.5 kPa, Liquid | 1070.1
310 K, 4017.7 kPa, Liquid | 1073.4
310 K, 4131.5 kPa, Liquid | 1073.59
310 K, 4531.7 kPa, Liquid | 1076.5
310 K, 5049.8 kPa, Liquid | 1079.54
310 K, 5149.7 kPa, Liquid | 1079.59
310 K, 5542 kPa, Liquid | 1082.34
310 K, 5630.8 kPa, Liquid | 1082.31
310 K, 6021.1 kPa, Liquid | 1085.02
310 K, 6210.4 kPa, Liquid | 1085.5
310 K, 6538.6 kPa, Liquid | 1087.83
310 K, 6998 kPa, Liquid | 1090.22
310 K, 7191.1 kPa, Liquid | 1090.69
320 K, 46.4 kPa, Gas | 1.77
320 K, 68.4 kPa, Gas | 2.64
320 K, 100.6 kPa, Gas | 3.89
320 K, 147.5 kPa, Gas | 5.74
320 K, 215.4 kPa, Gas | 8.49
320 K, 312.9 kPa, Gas | 12.57

Liquid
Details | mass density | vapor or sublimation pressure
240 K | 1261.55 kg/m3 and 1261.54 kg/m3 | –
250 K | 1235.07 kg/m3 | –
260 K | 1208.02 kg/m3 | –
270 K | 1179.44 kg/m3 | –
280 K | 1150.07 kg/m3 | –
290 K | 1119.31 kg/m3 | –
300 K | 1086.15 kg/m3 and 1086.47 kg/m3 and 1086.56 kg/m3 | 607.7 kPa and 607.3 kPa
305 K | – | 698.7 kPa
310 K | 1054.67 kg/m3 [middle of 4 runs] | 800.9 kPa and 800.7 kPa and 801.7 kPa
315 K | – | 914.3 kPa

Gas, Burnett expansion method
Details | mass density [kg/m3]
300 K, 124.2 kPa | 5.136
300 K, 170.5 kPa | 7.128
300 K, 183.4 kPa | 7.703
300 K, 251.4 kPa | 10.75
300 K, 268.7 kPa | 11.56
300 K, 364.7 kPa | 16.13
300 K, 388.1 kPa | 17.29
300 K, 519.4 kPa | 24.16
300 K, 550.3 kPa | 25.89
310 K, 128.7 kPa | 5.137
310 K, 177.1 kPa | 7.139
310 K, 190.3 kPa | 7.705
310 K, 261 kPa | 10.74
310 K, 279.4 kPa | 11.56
310 K, 380.4 kPa | 16.14
310 K, 405 kPa | 17.3
310 K, 545.9 kPa | 24.27
310 K, 578.6 kPa | 25.97
310 K, 759.9 kPa | 36.24
320 K, 133.1 kPa | 5.135
320 K, 183.4 kPa | 7.139
320 K, 197.1 kPa | 7.701
320 K, 270.9 kPa | 10.74
320 K, 289.9 kPa | 11.55
320 K, 395.7 kPa | 16.14
